Patent US20260132127A1, “NOVEL SPIRO COMPOUND” (MITSUBISHI TANABE PHARMA CORPORATION, priority 2021, published 2026)

Molecular target: T1, human TRH-DE (Homo sapiens, UniProt Q9UKU6)
T1 construct: expressed in transfected cells; host or cells: Expi 293 cells (transient expression), membrane fraction
T1 sequence (Q9UKU6 1-1069): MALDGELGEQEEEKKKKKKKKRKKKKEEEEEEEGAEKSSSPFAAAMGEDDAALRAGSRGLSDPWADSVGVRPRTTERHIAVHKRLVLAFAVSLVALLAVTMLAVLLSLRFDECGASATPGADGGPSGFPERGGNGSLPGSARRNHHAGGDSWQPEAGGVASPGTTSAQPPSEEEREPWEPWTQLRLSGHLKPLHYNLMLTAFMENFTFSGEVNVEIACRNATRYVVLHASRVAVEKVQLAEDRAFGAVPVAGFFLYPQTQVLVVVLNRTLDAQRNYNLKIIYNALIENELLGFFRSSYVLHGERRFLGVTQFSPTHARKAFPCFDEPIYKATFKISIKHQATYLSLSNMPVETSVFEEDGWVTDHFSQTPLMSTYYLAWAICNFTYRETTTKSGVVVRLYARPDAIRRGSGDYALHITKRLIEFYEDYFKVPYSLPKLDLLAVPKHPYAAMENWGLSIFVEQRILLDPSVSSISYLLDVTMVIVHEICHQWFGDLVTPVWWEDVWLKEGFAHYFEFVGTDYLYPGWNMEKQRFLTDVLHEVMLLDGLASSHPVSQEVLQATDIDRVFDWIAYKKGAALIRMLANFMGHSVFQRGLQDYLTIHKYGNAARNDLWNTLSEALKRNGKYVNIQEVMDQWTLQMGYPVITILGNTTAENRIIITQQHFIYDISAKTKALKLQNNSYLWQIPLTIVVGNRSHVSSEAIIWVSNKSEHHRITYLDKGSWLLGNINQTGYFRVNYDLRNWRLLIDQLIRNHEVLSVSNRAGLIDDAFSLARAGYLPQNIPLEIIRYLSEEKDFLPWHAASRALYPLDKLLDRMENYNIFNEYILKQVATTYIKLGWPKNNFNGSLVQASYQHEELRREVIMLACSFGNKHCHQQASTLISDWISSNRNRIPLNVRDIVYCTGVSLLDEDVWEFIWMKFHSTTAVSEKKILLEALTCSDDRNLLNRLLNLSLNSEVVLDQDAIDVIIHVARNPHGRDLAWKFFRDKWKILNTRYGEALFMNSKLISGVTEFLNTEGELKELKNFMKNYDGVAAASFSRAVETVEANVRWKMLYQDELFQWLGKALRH
Assay: TRH-DE inhibition test (RapidFire MS measurement of product Cyclo (His-Pro))
Assay type: biochemical
Conditions: membrane fraction of Expi 293 cells expressing human TRH-DE; 10 μM TRH substrate; room temperature, 2 hours; 16-point concentration test
In short: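 Inhibition derived from product/internal-standard ratios of Cyclo(His-Pro), quantified by RapidFire triple-quadrupole MS after acetonitrile:methanol quench, with IC50 fitted over 16 concentrations. Enzyme source: membranes of Expi 293 cells transiently expressing human TRH-DE, 4 μg/ml, pH 7.4 phosphate buffer. Incubation with 10 μM substrate ran 2 h at room temperature.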

Structure (SMILES)	IC50 [nM]
C[C@@H]1COc2nc(O[C@H]3CCOC3)ncc2C(=O)N1C1CC2(C1)CN(S(=O)(=O)c1ccccc1F)C2 [Example 377]	14
C[C@@H]1COc2nc(N(C)C)ncc2C(=O)N1C1CC2(C1)CN(S(=O)(=O)c1ccccc1F)C2 [Example 380]	3
C[C@@H]1COc2nc(N3CCCC3)ncc2C(=O)N1C1CC2(C1)CN(S(=O)(=O)c1ccccc1F)C2 [Example 381]	2
C[C@@H]1COc2nc(N3CCCCC3)ncc2C(=O)N1C1CC2(C1)CN(S(=O)(=O)c1ccccc1F)C2 [Example 382]	4
C[C@@H]1COc2nc(N3CCOCC3)ncc2C(=O)N1C1CC2(C1)CN(S(=O)(=O)c1ccccc1F)C2 [Example 383]	11
C[C@@H]1COc2nc(N3CCCOCC3)ncc2C(=O)N1C1CC2(C1)CN(S(=O)(=O)c1ccccc1F)C2 [Example 384]	5
COC1CCN(c2ncc3c(n2)OC[C@@H](C)N(C2CC4(C2)CN(S(=O)(=O)c2ccccc2F)C4)C3=O)CC1 [Example 387]	4
C[C@@H]1COc2nc(N3C[C@H]4COC[C@H]4C3)ncc2C(=O)N1C1CC2(C1)CN(S(=O)(=O)c1ccccc1F)C2 [Example 388]	4
C[C@@H]1COc2nc(N3[C@@H]4CC[C@H]3COC4)ncc2C(=O)N1C1CC2(C1)CN(S(=O)(=O)c1ccccc1F)C2 [Example 389]	12
C[C@@H]1COc2nc(N3[C@@H]4CCC[C@H]3COC4)ncc2C(=O)N1C1CC2(C1)CN(S(=O)(=O)c1ccccc1F)C2 [Example 390]	11
C[C@@H]1COc2nc(N3CCOC(F)(F)C3)ncc2C(=O)N1C1CC2(C1)CN(S(=O)(=O)c1ccccc1F)C2 [Example 391]	4
C[C@@H]1COc2nc(N3[C@@H]4COC[C@H]3C4)ncc2C(=O)N1C1CC2(C1)CN(S(=O)(=O)c1ccccc1F)C2 [Example 392]	3
CO[C@H]1CCN(c2ncc3c(n2)OC[C@@H](C)N(C2CC4(C2)CN(S(=O)(=O)c2ccccc2F)C4)C3=O)C1 [Example 393]	3
CO[C@@H]1CCN(c2ncc3c(n2)OC[C@@H](C)N(C2CC4(C2)CN(S(=O)(=O)c2ccccc2F)C4)C3=O)C1 [Example 394]	4
C[C@@H]1COc2nc(N3CCC3)ncc2C(=O)N1C1CC2(C1)CN(S(=O)(=O)c1ccccc1F)C2 [Example 395]	3
C[C@@H]1COc2nc(N3C[C@H]4C[C@@H]3CO4)ncc2C(=O)N1C1CC2(C1)CN(S(=O)(=O)c1ccccc1F)C2 [Example 396]	5
C[C@@H]1COc2nc(N3C[C@@H]4C[C@H]3CO4)ncc2C(=O)N1C1CC2(C1)CN(S(=O)(=O)c1ccccc1F)C2 [Example 397]	7
C[C@@H]1COc2nc(N3C[C@H]4C[C@@H](C3)O4)ncc2C(=O)N1C1CC2(C1)CN(S(=O)(=O)c1ccccc1F)C2 [Example 398]	2
C[C@@H]1COc2nc(N3CC(F)C3)ncc2C(=O)N1C1CC2(C1)CN(S(=O)(=O)c1ccccc1F)C2 [Example 399]	5
C[C@@H]1COc2nc(N3CC[C@H](C#N)C3)ncc2C(=O)N1C1CC2(C1)CN(S(=O)(=O)c1ccccc1F)C2 [Example 401]	2
C[C@@H]1COc2nc(N3CC[C@@H](C#N)C3)ncc2C(=O)N1C1CC2(C1)CN(S(=O)(=O)c1ccccc1F)C2 [Example 402]	3
C[C@@H]1COc2nc(N3C[C@H]4C[C@@H]3C4)ncc2C(=O)N1C1CC2(C1)CN(S(=O)(=O)c1ccccc1F)C2 [Example 403]	3
C[C@@H]1COc2nc(N3CC(C(F)(F)F)C3)ncc2C(=O)N1C1CC2(C1)CN(S(=O)(=O)c1ccccc1F)C2 [Example 404]	4
C[C@@H]1COc2nc(N3CC4(COC4)C3)ncc2C(=O)N1C1CC2(C1)CN(S(=O)(=O)c1ccccc1F)C2 [Example 407]	5
C[C@@H]1COc2nc(N3CC4(CCOC4)C3)ncc2C(=O)N1C1CC2(C1)CN(S(=O)(=O)c1ccccc1F)C2 [Example 408]	4

Results, then the compound that gave them:

IC50 [nM]	Structure (SMILES)
4	C[C@@H]1COc2nc(NC3CC3)ncc2C(=O)N1C1CC2(C1)CN(S(=O)(=O)c1ccccc1F)C2 [Example 409]
5	CC(C)Nc1ncc2c(n1)OC[C@@H](C)N(C1CC3(C1)CN(S(=O)(=O)c1ccccc1F)C3)C2=O [Example 410]
8	C[C@@H]1COc2nc(N3CC(C#N)C3)ncc2C(=O)N1C1CC2(C1)CN(S(=O)(=O)c1ccccc1F)C2 [Example 411]
16	C[C@@H]1COc2nc(N3C[C@H]4CC[C@@H](C3)O4)ncc2C(=O)N1C1CC2(C1)CN(S(=O)(=O)c1ccccc1F)C2 [Example 412]
183	Cc1ccsc1S(=O)(=O)N1CC2(CC(N3C(=O)c4cccnc4OCC3C)C2)C1 (stereo not drawn) [Example 413]
618	CCCN(C(=O)c1cccnc1OC)C1CC2(C1)CN(S(=O)(=O)c1cccc(C)c1)C2 [Example 414, 2-methoxy-N-[2-(3-methylphenyl)sulfonyl-2-azaspiro[3.3]heptan-6-yl]-N-propylpyridine-3-carboxamide]
847	CCCN(C(=O)c1cccnc1OC)C1CC2(C1)CN(S(=O)(=O)c1cccs1)C2 [Example 415]
676	CCCN(C(=O)c1cccnc1OC)C1CC2(C1)CN(S(=O)(=O)c1ccccc1F)C2 [Example 416]
690	CCCN(C(=O)c1cccnc1OC)C1CC2(C1)CN(S(=O)(=O)c1sccc1C)C2 [Example 417]
75	CCCN(C(=O)c1cccnc1OC)C1CC2(C1)CN(S(=O)(=O)c1cc(C)ccc1F)C2 [Example 418]
685	CCCN(C(=O)c1cccnc1OC)C1CC2(C1)CN(S(=O)(=O)c1cccc(-c3ccccc3)c1)C2 [Example 419]
701	CCCN(C(=O)c1cccnc1OC)C1CC2(C1)CN(S(=O)(=O)c1cccc(C)c1F)C2 [Example 420]
480	CCCN(C(=O)c1cccnc1OC)C1CC2(C1)CN(S(=O)(=O)c1cc(OC)ccc1F)C2 [Example 421]
218	COCC1C(c2ccccc2)=CC(=O)N1C1CC2(C1)CN(S(=O)(=O)c1ccccc1F)C2 (stereo not drawn) [Example 422]
974	CCCN(C(=O)c1cccnc1OC)C1CC2(C1)CN(S(=O)(=O)c1ccccc1)C2 [Example 423, N-[2-(benzenesulfonyl)-2-azaspiro[3.3]heptan-6-yl]-2-methoxy-N-propylpyridine-3-carboxamide]
795	CCCN(C(=O)c1cccnc1OCC)C1CC2(C1)CN(S(=O)(=O)c1cccc(C)c1)C2 [Example 424]
860	CCCN(C(=O)c1ccccc1OC)C1CC2(C1)CN(S(=O)(=O)c1cccc(C)c1)C2 [Example 425]
95	CCCN(C(=O)c1ccnc2[nH]cnc12)C1CC2(C1)CN(S(=O)(=O)c1cc(C)ccc1F)C2 [Example 426]
52	CCCN(C(=O)c1cccnc1N(C)C)C1CC2(C1)CN(S(=O)(=O)c1cc(C)ccc1F)C2 [Example 427]
14	CCCN(C(=O)c1ccnc2[nH]ccc12)C1CC2(C1)CN(S(=O)(=O)c1cc(C)ccc1F)C2 [Example 428]
14	CCCN(C(=O)c1cccnc1NC1CC1)C1CC2(C1)CN(S(=O)(=O)c1cc(C)ccc1F)C2 [Example 429]
48	CCCN(C(=O)c1cccc2[nH]c(C)nc12)C1CC2(C1)CN(S(=O)(=O)c1cc(C)ccc1F)C2 [Example 430]
347	CCCN(C(=O)c1nc2ccccc2[nH]1)C1CC2(C1)CN(S(=O)(=O)c1cc(C)ccc1F)C2 [Example 431]
